We go through three molecules from patent US10487117B2, “Antimicrobial peptide for nosocomial infections” (priority 2015, dated 2019).

Converted amounts (≈) assume the structure as drawn. Like-named read-outs stand apart in the source and are kept apart here. Residues, ends and D or L forms follow the SMILES beside them.

Assay type in all cases: cell-based, Pseudomonas aeruginosa
The subject of experiment [1] is pre-established P. aeruginosa biofilm. Briefly: Biofilm eradication assay, crystal violet staining. The note with it: 24 h formed biofilm; 4 h at 37° C.; 10% Triton X-100 as maximum reference. The method, then: Following, the biofilm eradication activity was determined (FIG. 1 and Table 6). […] Moreover, the biofilm eradication activity of all the tested reference peptides was well above the maximum concentration tested (50 μM), except for RN3(5-17P22-36) which was able to eradicate the biofilm close to 50 μM.
Biofilm formation assay was modified from the previously described protocol (Huedo P. et al. 2014). Briefly, overnight cultures of P. aeruginosa were centrifuged at 5000×g for 5 min, washed and adjusted to an OD600=0.1 in tryptic soy medium (TSB). Two hundred microliters of the bacterial suspension were dispensed in each well of a polystyrene 96-well microtiter plate (Greiner Bio-one, France). The plate was incubated at 37° C. on an orbital shaker (30 rpm). The media was exchanged with fresh pre-warmed TSB after 4 h, in order to remove the non-attached bacteria. After 24 h incubation, the formation of biofilm was then evaluated using the crystal violet staining technique (Stepanovic S. et al. 2000). Briefly, the plates were washed three times with PBS, fixed at 60° C. for 1 h, and stained for 15 min with 200 μl of 0.1% crystal violet. After the dye was discarded, plates were rinsed in PBS and allowed to dry for 30 min at 37° C. Crystal violet was dissolved in 250 μl of 95% ethanol for 15 min, and the OD570 of the extracted dye was measured using a Victor3 plate reader (Perkin-Elmer, Waltham, Mass.).
Biofilms were grown as above. Twenty-four hour formed P. aeruginosa biofilm was washed three times with sterile PBS, and rinsed with 10 mM sodium phosphate buffer pH 7.5. Each well was treated with increasing protein/peptide concentrations (from 0.01 to 50 μM) and incubated at 37° C. for 4 h. The biofilm eradication was then evaluated using the crystal violet staining technique (Stepanovic S. et al. 2000). The ability of the antimicrobial peptides to disperse and reduce the biofilm mass of preformed biofilms was calculated. The peptide concentration required to achieve total preformed biofilm eradication after 4 h incubation time was estimated. A maximum reference value was taken for Triton X-100 at 10%. The minimum biofilm eradication concentration (MBEC), defined as the protein/peptide concentration where the 99.9% of the biofilm mass is eradicated was estimated.

For experiment [2], the system named is planktonic P. aeruginosa. Here is the method: The microbial cell viability was then assayed using the BacTiter-Glo™ luminescent kit. […] No cell reduction was detected for the peptide GL-13 even for the maximum concentration assayed (50 μM).
Bacterial viability was assayed using the BacTiter-Glo™ microbial cell viability kit. Briefly, protein/peptides were dissolved in 10 mM sodium phosphate, 0.1M buffer, pH 7.5, serially diluted from 50 to 0.1 μM and tested in a 96-well microtiter plate containing P. aeruginosa planktonic (OD600˜0.2) or 24 h formed biofilm for 4 h at 37° C. Fifty microliters of BacTiter-Glo™ reagent was added to each well according to the manufacturer's instructions and incubated at room temperature for 15 min. Luminescence was read on a Victor3 plate reader with a 3-s integration time. Fifty percent (ED50) and total inhibitory concentrations were calculated by fitting the data to a dose-response curve.

For experiment [3], the system named is planktonic P. aeruginosa. Briefly: Minimum inhibitory concentration (MIC100) assay. The note with it: 4 h at 37° C., mean ± SEM, max 50 μM. The method, then:
First the peptide ability to inhibit the proliferation of P. aeruginosa cells was assessed by determining the minimum inhibitory concentration (MIC100).
MIC100 of each protein/peptide was determined as described (Torrent M. et al. 2012). Bacteria were incubated at 37° C. overnight in Luria-Bertani broth (LB) and diluted to give approximately 5×10^5 CFU/mL. In each assay protein/peptide serially diluted from 50 to 0.2 μM in 10 mM sodium phosphate, 0.1 M NaCl, buffer pH 7.5 were added to 100 μl bacteria dilution and incubated for 4 h at 37° C. Subsequently, samples were plated onto Petri dishes and incubated at 37° C. overnight. MIC100 values were determined as function of the total growth inhibition by the protein and peptides, from two independent experiments performed in triplicate.

The subject of experiment [4] is planktonic P. aeruginosa. Description: SYTOX Green membrane permeabilization assay, planktonic. The following applies: for Permeabilization %max: 10% Triton X-100 as maximum reference. The method, then: Further insight into the membrane-permeabilizing effect of the selected AMPs against P. aeruginosa was evaluated by the Sytox Green assay. Local membrane disturbances allow the cell uptake of the fluorescent Sytox Green dye that subsequently stains the cell nucleic acids; the fluorescence increase is registered to monitor the cell membrane permeabilization. Therefore, the half permeabilization action (ED50) was measured, and the total permeabilization activity expressed as a percentage (Table 5). […] On the other hand, WY-12 and CA-M required a 6- to 7-fold greater concentration than RNase 3 to produce half of their permeabilizing effect.
Membrane permeabilization was followed using the method SYTOX Green Fluorescence membrane permeabilization assay. In the planktonic assay, bacterial cells were grown at 37° C. to an OD600=0.2, centrifuged at 5000×g for 5 min, and resuspended in 1×PBS to an OD600=0.2. An aliquot of 200 μl was then transferred to a microtiter plate. For biofilm assay, 24 h formed P. aeruginosa biofilm in a 96-well microtiter plate were washed three times with sterile PBS. SYTOX Green was added to a final concentration of 1 μM and incubated 15 min in darkness. Changes in the fluorescence were continuously recorded after addition of a serially diluted protein/peptides from 50 to 0.1 μM in a Victor3 plate reader. The peptide concentration required to achieve half of total and total membrane permeabilization achieved after 40 min was estimated from nonlinear regression analysis as previously described (Pulido D. et al. Antimicrob Agents Chemother 2013). A maximum reference value was taken for Triton X-100 at 10%.

[5] abbreviates: planktonic P. aeruginosa, 4 h at 37° C., mean ± SEM, N.D. = not detected at 50 μM, read-out: IC50 (50% bacterial viability).

Turning to `CC[C@H](C)[C@H](NC(=O)[C@H](CCC(N)=O)NC(=O)CN)C(=O)N[C@H](C(=O)N[C@@H](CC(N)=O)C(=O)N[C@@H](CC(C)C)C(=O)N[C@@H](CCCCN)C(=O)N[C@@H](C)C(=O)N[C@@H](CO)C(=O)N[C@@H](CC(C)C)C(=O)N[C@@H](CC(=O)O)C(=O)N[C@@H](CC(C)C)C(=O)N[C@@H](CC(C)C)C(N)=O)[C@@H](C)CC` [GL-13, GQIINLKASLDLL-NH2] (H-GQIINLKASLDLL-NH2), the “Biofilm eradication (%max)” value in experiment [1] is reported as 33.28 ± 1.07%. In addition, in the experiment on planktonic P. aeruginosa [2] (planktonic, 4 h), the IC50 was above 50000 nM. The molecule also registered an MIC100 against planktonic P. aeruginosa [3] above 50 µM. Also, the “Permeabilization ED50” value in the experiment on planktonic P. aeruginosa [4] (40 min, N.D. = not detected at 50 μM) is listed as “unable to perform any cell membrane permeabilization”.

`CC[C@H](C)[C@H](NC(=O)[C@H](CCCCN)NC(=O)[C@H](CCC(=O)O)NC(=O)[C@H](CCCCN)NC(=O)[C@H](CO)NC(=O)[C@H](CCCCN)NC(=O)[C@H](CCCNC(=N)N)NC(=O)[C@H](Cc1ccccc1)NC(=O)[C@H](Cc1ccccc1)NC(=O)[C@H](CC(=O)O)NC(=O)CNC(=O)[C@H](CC(C)C)NC(=O)[C@@H](N)CC(C)C)C(=O)NCC(=O)N[C@@H](CCCCN)C(=O)N[C@@H](CCC(=O)O)C(=O)N[C@@H](Cc1ccccc1)C(=O)N[C@@H](CCCCN)C(=O)N[C@@H](CCCNC(=N)N)C(=O)N[C@H](C(=O)N[C@H](C(=O)N[C@@H](CCC(N)=O)C(=O)N[C@@H](CCCNC(=N)N)C(=O)N[C@H](C(=O)N[C@@H](CCCCN)C(=O)N[C@@H](CC(=O)O)C(=O)N[C@@H](Cc1ccccc1)C(=O)N[C@@H](CC(C)C)C(=O)N[C@@H](CCCNC(=N)N)C(=O)N[C@@H](CC(N)=O)C(=O)N[C@@H](CC(C)C)C(=O)N[C@H](C(=O)N1CCC[C@H]1C(=O)N[C@@H](CCCNC(=N)N)C(=O)N[C@H](C(=O)N[C@@H](CCC(=O)O)C(=O)N[C@@H](CO)C(N)=O)[C@@H](C)O)C(C)C)[C@@H](C)CC)C(C)C)[C@@H](C)CC` [LL-37]: in experiment [1], the “Biofilm eradication (%max)” value amounted to 35.54 ± 1.13%. Moreover, in the experiment with planktonic P. aeruginosa [2] (setting [5]), the IC50 is 2280 ± 220 nM. The MIC100 against planktonic P. aeruginosa [3] stood at 6.00 ± 0.05 µM (≈ 27 µg/mL). The same molecule gave a Permeabilization %max in the experiment on planktonic P. aeruginosa [4] of 38.80 ± 1.13%.

With `CC[C@H](C)[C@H](NC(=O)CNC(=O)[C@@H](NC(=O)[C@H](CCCCN)NC(=O)[C@H](CCCCN)NC(=O)[C@H](Cc1ccccc1)NC(=O)[C@H](CC(C)C)NC(=O)[C@H](CCCCN)NC(=O)[C@H](Cc1c[nH]c2ccccc12)NC(=O)[C@@H](N)CCCCN)[C@@H](C)CC)C(=O)NCC(=O)N[C@@H](C)C(=O)N[C@H](C(=O)N[C@@H](CC(C)C)C(=O)N[C@@H](CCCCN)C(=O)N[C@H](C(=O)N[C@@H](CC(C)C)C(=O)N[C@H](C(=O)N[C@H](C(=O)NCC(=O)N[C@@H](CC(C)C)C(=O)N1CCC[C@H]1C(=O)N[C@@H](C)C(=O)N[C@@H](CC(C)C)C(=O)N[C@H](C(=O)N[C@@H](CO)C(N)=O)[C@@H](C)CC)[C@@H](C)O)[C@@H](C)O)C(C)C)C(C)C` [CA-M], the “Biofilm eradication (%max)” value in experiment [1] is 53.03 ± 1.46%. For the same molecule, the IC50 in the experiment with planktonic P. aeruginosa [2] (setting [5]) was 2540 ± 1080 nM. In the experiment on planktonic P. aeruginosa [3], the MIC100 worked out at 6.00 ± 0.05 µM (≈ 16.8 µg/mL). The same molecule gave a Permeabilization %max in the experiment with planktonic P. aeruginosa [4] of 34.69 ± 2.18%.

One may read the IC50 as the concentration that gives 50% inhibition.
